Experiment [1] addresses acetylcholinesterase (AchE) (Homo sapiens, UniProt P22303). The experiment is described as follows: biochemical. On the procedure:
The modified Ellman method was used to determine the inhibitory activity on acetylcholinesterase. The principle lies in that acetylthiocholine iodide is decomposed under the action of acetylcholinesterase (AchE) to generate thiocholine. The thiocholine is quickly reacted with DTNB as the colour-developing agent to generate a yellow substance with light absorption at 405 nm. To a 96-well microplate, 50 μl of enzyme reaction buffer, 125 μl of DTNB (3 mM), 25 μl of test sample or positive control drug, and 25 μl of AchE (0.2 U/ml) were successively added. After incubation at room temperature for 5 min, 25 μl of ATCI (15 mM) was added. After incubation at room temperature for 8 min, the absorbance value was determined at 405 nm with a microplate reader. A blank control group without enzyme (25 μl PBS instead of the sample to be tested) was also established.

Experiment [2] concerns substantia nigra CD11b. The experiment is described as follows: Number of substantia nigra microglial cells with CD11b positive expression in MPTP Parkinson's disease model mouse (immunohistochemistry). The following applies: substantia nigra, MPTP Parkinson's disease model mouse, immunohistochemistry. The class given is in vivo. On the procedure: (§1) Neurotoxins can be used to establish PD animal models. Currently, 1-methyl-4-phenyl-1,2,3,6-tetrahydropyridine (MPTP) is the sole synthetic toxin which is recognized to induce PD symptoms in human and non-human primates and in mice. Using MPTP subacute modeling method, C57BL/6J male mice were intraperitoneally injected with MPTP 30 mg/kg, once a day for 5 consecutive days. The experiment animals were divided into blank control group, MPTP model group, and compound treatment group. For the […] compound treatment group, the compound was administrated by gavage for 21 consecutive days after the completion of modeling; for the MPTP model group, the normal saline was administrated by gavage for 21 consecutive days after the completion of modeling; and for the blank control group, the normal saline was first intraperitoneally injected for 5 days, and then administrated by gavage for 21 days.
Neuron-glial cell network homeostasis disorder is an important factor for the selective and progressive death of substantia nigra dopaminergic neurons in PD. In the neurotoxic effect of MPTP, the excessive activations of microglial cells and astrocytes produce a variety of inflammatory cytokines and reactive oxygen species (ROS). These inflammatory factors and ROS amplify their respective toxicities and mediate malignant feedback loop, causing a cascade inflammation response and aggravating the pathological process of PD. CD11b and GFAP are the marker proteins for activations of microglial cells and astrocytes, respectively. Therefore, the effect of the target compounds on the activations of the microglial cells and astrocytes in the substantia nigra, hippocampus, and midbrain areas of MPTP-induced PD mice can be investigated, to explore the mechanism of the anti-PD effect of the target compounds by inhibiting the neuroinflammation.
Half of experiment mice in each group were taken to separate the midbrain after perfusion and fixation. The tissue was trimmed, and the substantia nigra area was taken to prepare paraffin sections. The CD11b immunohistochemical staining was performed for the statistics of the change in the number of microglial cells with CD11b positive expression. The experiment included blank control group, MPTP model group, positive control group (caffeic acid phenethyl ester, CAPE), prototype control group (styryl sulfone compounds 3B, 3C, 3D, and 3G, whose structures are shown as above), and target compound group.

In experiment [3] the test system is HO-1. The experiment is described as follows: Midbrain HO-1 expression in MPTP Parkinson's disease model mouse (western blot). Type of experiment: in vivo. The following applies: midbrain, MPTP Parkinson's disease model mouse, western blot. On the procedure: as §1
(§2) Oxidative stress is an important pathogenic mechanism of PD. Dopaminergic neurons are more sensitive to oxidative stress and are more susceptible to oxidative stress damage. Heme oxygenase (HO-1), a phase II enzyme, is also a well-known antioxidase. It plays an important protective role by catalyzing the conversion of free radicals into non-toxic products and increasing their water solubility to facilitate the elimination of free radicals, and maintain the redox balance in the body. It plays an important role in the process of protecting cells against oxidative stress damage. The activation of p38 protein phosphorylation has a negative regulatory effect on phase II enzymes. […] Using HO-1 as an indicator, the inhibitory effect of the target compounds on MPTP-induced oxidative stress damage in PD mice can be investigated.
HO-1 is expressed in astrocytes, microglial cells, and neurons. The total proteins of the midbrain tissue of mice in each experiment group were extracted, to determine the expression of phase II enzyme HO-1 in the midbrain of mice by western blot using GAPDH as the internal reference. The experiment included blank control group, MPTP model group, positive control group (caffeic acid phenethyl ester, CAPE), prototype control group (styryl sulfone compounds 3B, 3C, 3D, and 3G, whose structures are shown as above), and target compound group.

Experiment [4] has as its system midbrain TH. The experiment is described as follows: Midbrain TH expression in MPTP Parkinson's disease model mouse (western-blotting). Conditions: midbrain total protein, GAPDH internal reference, gavage 21 days after MPTP modeling. The class given is in vivo. The protocol: as §1
The main cause of PD lies in the pathological changes in the substantia nigra-striatum projection system of the brain and the progressive degeneration and loss of dopaminergic neurons. Tyrosine hydroxylase (TH) is the first enzyme in the biosynthesis of catecholamine neurotransmitters, as well as the first rate-limiting enzyme in the dopamine synthesis. It plays an important role in the synthesis and metabolism of the neurotransmitter DA. The TH in PD animal models and patients has a wide range of abnormal changes, from the gene expression to the enzyme protein content and enzyme activity. The detection of the TH expression in the midbrain and substantia nigra of PD model mice can be used to evaluate the neuroprotective activity of the compound.
Half of experiment mice in each group were taken to extract the total midbrain protein, and the change in the midbrain TH was determined by western-blotting using GAPDH as the internal reference. The experiment included blank control group, MPTP model group, positive control group (caffeic acid phenethyl ester, CAPE), prototype control group (styryl sulfone compounds 3B, 3C, 3D, and 3G, whose structures are shown as above), and target compound group.

The subject of experiment [5] is GCLC. The experiment is described as follows: Midbrain GCLC expression in MPTP Parkinson's disease model mouse (western blot). The class given is in vivo. Conditions: midbrain, MPTP Parkinson's disease model mouse, western blot. The protocol:
as §1
as §2, with “Glutathione (GSH) is an important antioxidant substance in the cell, and glutamate cysteine ligase (GCL) is the rate-limiting enzyme for GSH synthesis, which is composed of catalytic subunit (GCLC) and regulatory subunit (GCLM). The increase of GCLC expression can promote the synthesis of GSH and enhance the ability of tissue cells against oxidative stress. GCL,” for “Heme oxygenase (HO-1),”, “enzyme,” for “enzyme, is also a well-known antioxidase. It”, “GCLC” for “HO-1”
GCLC is expressed in astrocytes, microglial cells, and neurons. The total proteins of the midbrain tissue of mice in each experiment group were extracted, to determine the expression of phase II enzyme GCLC in the midbrain of mice by western blot using GAPDH as the internal reference. The experiment included blank control group, MPTP model group, positive control group (caffeic acid phenethyl ester, CAPE), prototype control group (styryl sulfone compounds 3B, 3C, 3D), and 3G, whose structures are shown as above), and target compound group.

Where [6] appears, read: acetylcholinesterase, modified Ellman method, read-out: IC50.

Where two headings read alike, the source gives them in different places. Where only a bound is given, the exact number is not on record here.

Chain of acetylcholinesterase (AchE) (P22303 32-614, species assumed): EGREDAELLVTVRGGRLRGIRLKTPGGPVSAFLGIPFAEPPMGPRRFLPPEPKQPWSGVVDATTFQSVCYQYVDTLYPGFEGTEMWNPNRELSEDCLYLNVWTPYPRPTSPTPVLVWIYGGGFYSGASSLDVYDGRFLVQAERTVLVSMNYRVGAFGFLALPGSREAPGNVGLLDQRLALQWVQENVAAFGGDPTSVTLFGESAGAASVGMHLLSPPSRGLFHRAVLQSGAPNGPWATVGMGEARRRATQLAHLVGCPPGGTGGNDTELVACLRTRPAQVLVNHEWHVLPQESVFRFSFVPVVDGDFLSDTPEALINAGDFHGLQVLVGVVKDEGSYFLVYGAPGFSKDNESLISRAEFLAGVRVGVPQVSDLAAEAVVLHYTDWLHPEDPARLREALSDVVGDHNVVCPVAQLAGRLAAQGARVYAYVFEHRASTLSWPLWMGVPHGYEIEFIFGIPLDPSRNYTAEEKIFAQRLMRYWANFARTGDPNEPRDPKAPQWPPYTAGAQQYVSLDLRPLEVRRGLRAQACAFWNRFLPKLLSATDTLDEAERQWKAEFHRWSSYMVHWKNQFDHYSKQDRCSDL

For `CNC(=O)Oc1ccc(/C=C/S(=O)(=O)CC(Cl)c2ccc(Cl)c([N+](=O)[O-])c2)cc1O` (centres unmarked) [Compound E2-2, (E)-4-{2-[2-chloro-2-(4-chloro-3-nitrophenyl)ethylsulfonyl]ethenyl}-2-hydroxyphenyl-N-methylcarbamate], the IC50 (usually the midpoint of a concentration-inhibition curve) in experiment [1] stood at 51.3 ± 3.94 µM. Further, in experiment [2], the “Positive cell number (microglial cells with CD11b positive expression)” value (“Positive cell number” below) is 40 ± 5. In addition, the “Expression (HO-1/GAPDH)” value in experiment [3] is on record as 1.58 ± 0.08. Besides, in experiment [4], the “Expression (TH/GAPDH)” value is recorded as 0.97 ± 0.03. The “Expression (GCLC/GAPDH)” value in experiment [5] is reported as 1.48 ± 0.11.

Take `O=S(=O)(/C=C/c1ccc(O)c(O)c1)Cc1ccc(Cl)cc1` [Compound 3D, (E)-4-{2-[(4-chlorophenyl)mesyl]ethenyl}benzene-1,2-diol, reference compound]: the IC50 in experiment [1] (setting [6]) is more than 100 µM. Further, the “Positive cell number” value in experiment [2] came to 39 ± 4. For the same compound, the “Expression (HO-1/GAPDH)” value in experiment [3] is listed as 1.03 ± 0.20. In addition, the “Expression (TH/GAPDH)” value in experiment [4] was 0.93 ± 0.06. In addition, the “Expression (GCLC/GAPDH)” value in experiment [5] came out at 0.53 ± 0.04.

In the case of “(E)-2-[(methylamino)methoxy]-4-{2-[1-(4′-nitro-[1,1′-biphenyl]-4-yl)ethylsulfonyl]ethenyl}phenylcarbamate [Compound M1-3]”, the IC50 in experiment [1] (setting [6]) stood at 17.6 ± 2.19 µM. Further, in experiment [2], the “Positive cell number” value was determined as 33 ± 5. Besides, the “Expression (HO-1/GAPDH)” value in experiment [3] was 0.80 ± 0.09. The “Expression (TH/GAPDH)” value in experiment [4] is 0.84 ± 0.06. Also, in experiment [5], the “Expression (GCLC/GAPDH)” value was found to be 0.82 ± 0.07.

Consider `O=S(=O)(/C=C/c1ccc(O)c(O)c1)Cc1ccc(C(F)(F)F)cc1` [Compound 3B, (E)-4-{2-[(4-trifluoromethylphenyl)mesyl]ethenyl}benzene-1,2-diol, reference compound], for which, in experiment [1] (setting [6]), the IC50 was more than 100 µM. Further, the “Positive cell number” value in experiment [2] was determined as 44 ± 5. In experiment [3], the “Expression (HO-1/GAPDH)” value is 0.56 ± 0.03. The “Expression (TH/GAPDH)” value in experiment [4] was 0.53 ± 0.03. Besides, in experiment [5], the “Expression (GCLC/GAPDH)” value was found to be 0.33 ± 0.04.

As to `C=CCOc1ccc(C/C=C/S(=O)(=O)/C=C/c2ccc(OC(C)=O)c(OC(=O)N(CC=C)CC=C)c2)cc1` [Compound K1-4, 4-{(E)-2-[(E)-3-(4-allyloxyphenyl)prop-1-en-1-yl]sulfonylethenyl}-2-(N,N-diallylcarbamoyloxy)phenyl acetate], the IC50 in experiment [1] (setting [6]) was determined as 16.9 ± 1.22 µM. Moreover, the “Positive cell number” value in experiment [2] was found to be 30 ± 4. The “Expression (HO-1/GAPDH)” value in experiment [3] is reported as 1.02 ± 0.09. For the same compound, the “Expression (TH/GAPDH)” value in experiment [4] stood at 0.74 ± 0.08. Besides, the “Expression (GCLC/GAPDH)” value in experiment [5] is reported as 1.10 ± 0.07.

`COc1ccc(CC(=O)Oc2ccc(/C(C)=C/S(=O)(=O)/C=C/c3ccc(OC(=O)N(C)C)c(O[Si](C)(C)CCl)c3)cc2)cc1` [Compound P1-7, 4-{(E)-1-[(E)-3-(chloromethyldimethylsiloxy)-4-(N,N-dimethylcarbamoyloxy)styrylsulfonyl]prop-1-en-2-yl}phenyl-2-(4-methoxyphenyl) acetate]: 21.4 ± 2.07 µM corresponded to half-maximal inhibition in experiment [1] (IC50). Also, the “Positive cell number” value in experiment [2] is 15 ± 2. In addition, in experiment [3], the “Expression (HO-1/GAPDH)” value worked out at 0.71 ± 0.09. Also, in experiment [4], the “Expression (TH/GAPDH)” value worked out at 0.88 ± 0.06. Besides, the “Expression (GCLC/GAPDH)” value in experiment [5] came out at 0.87 ± 0.08.

For the compound `CC(Br)C(Br)COc1cc(/C=C/S(=O)(=O)CCc2ccc(OCC(F)(F)F)cc2)ccc1OC(=O)Nc1ccsc1` (centres unmarked) [Compound K1-3, (E)-2-(2,3-dibromobutoxy)-4-{2-[4-(2,2,2-trifluoroethoxy)phenylethylsulfonyl]ethenyl}phenyl-N-(thien-3-yl)carbamate], the IC50 in experiment [1] (setting [6]) is 22.3 ± 3.17 µM. Also, the “Positive cell number” value in experiment [2] came out at 32 ± 4. Further, the “Expression (HO-1/GAPDH)” value in experiment [3] is on record as 0.83 ± 0.08. For the same compound, the “Expression (TH/GAPDH)” value in experiment [4] is given as 0.91 ± 0.04. In addition, in experiment [5], the “Expression (GCLC/GAPDH)” value was 1.13 ± 0.08.

Take `CC(C)N(c1ccc(CCS(=O)(=O)/C=C/c2ccc(OC(=O)N(C)c3ccc(I)cc3)c(OCCOCc3ccccc3)c2)cc1)C(C)C` [Compound A1-3, (E)-2-(2-benzyloxyethoxy)-4-{2-[4-(N,N-diisopropylamino)phenylethylsulfonyl]ethenyl}phenyl-N-(4-iodophenyl)-N-methylcarbamate]: inhibition in experiment [1] was half-maximal at 25.2 ± 3.34 µM (IC50). The “Positive cell number” value in experiment [2] was found to be 38 ± 4. In addition, in experiment [3], the “Expression (HO-1/GAPDH)” value is on record as 0.66 ± 0.05. For the same compound, in experiment [4], the “Expression (TH/GAPDH)” value is 0.93 ± 0.07. Besides, the “Expression (GCLC/GAPDH)” value in experiment [5] was determined as 0.84 ± 0.04.

For `COCCN(C)C(=O)Oc1cc(/C=C/S(=O)(=O)CCc2cccc(-c3ccc(C)o3)c2)ccc1OC(C)=O` [Compound J1-4, (E)-2-[N-(2-methoxyethyl)-N-methylcarbamoyloxy]-4-{2-[3-(5-methylfur-2-yl)phenylethylsulfonyl]ethenyl}phenyl acetate], the IC50 in experiment [1] worked out at 8.54 ± 1.65 µM. Also, the “Positive cell number” value in experiment [2] was determined as 24 ± 5. The “Expression (HO-1/GAPDH)” value in experiment [3] was 1.25 ± 0.06. In addition, the “Expression (TH/GAPDH)” value in experiment [4] was 0.89 ± 0.04. Moreover, the “Expression (GCLC/GAPDH)” value in experiment [5] came out at 1.24 ± 0.10.

Take `CN(C)c1ccc(CC(=O)Oc2cc(/C=C/S(=O)(=O)C(Br)c3ccc(Cc4ccc(N(C)C)cc4)cc3)ccc2OC(=O)N2CCCC2C(F)(F)F)cc1` (centres unmarked) [Compound M1-5]: in experiment [1] (setting [6]), the IC50 came to 31.3 ± 4.63 µM. In experiment [2], the “Positive cell number” value stood at 28 ± 3. For the same compound, the “Expression (HO-1/GAPDH)” value in experiment [3] came to 0.96 ± 0.08. In addition, the “Expression (TH/GAPDH)” value in experiment [4] was 0.83 ± 0.06. For the same compound, in experiment [5], the “Expression (GCLC/GAPDH)” value amounted to 1.35 ± 0.08.

The values above are taken from US12410124B2 (priority 2019, dated 2025).
